Molecular target: ATP-dependent translocase ABCB1 (Homo sapiens, UniProt P08183)
Experiment: TP_TRANSPORTER: Western in vivo, quantitative immunohistochemistry
Assay type: functional, organism-based

Chain of ATP-dependent translocase ABCB1 (P08183 whole entry): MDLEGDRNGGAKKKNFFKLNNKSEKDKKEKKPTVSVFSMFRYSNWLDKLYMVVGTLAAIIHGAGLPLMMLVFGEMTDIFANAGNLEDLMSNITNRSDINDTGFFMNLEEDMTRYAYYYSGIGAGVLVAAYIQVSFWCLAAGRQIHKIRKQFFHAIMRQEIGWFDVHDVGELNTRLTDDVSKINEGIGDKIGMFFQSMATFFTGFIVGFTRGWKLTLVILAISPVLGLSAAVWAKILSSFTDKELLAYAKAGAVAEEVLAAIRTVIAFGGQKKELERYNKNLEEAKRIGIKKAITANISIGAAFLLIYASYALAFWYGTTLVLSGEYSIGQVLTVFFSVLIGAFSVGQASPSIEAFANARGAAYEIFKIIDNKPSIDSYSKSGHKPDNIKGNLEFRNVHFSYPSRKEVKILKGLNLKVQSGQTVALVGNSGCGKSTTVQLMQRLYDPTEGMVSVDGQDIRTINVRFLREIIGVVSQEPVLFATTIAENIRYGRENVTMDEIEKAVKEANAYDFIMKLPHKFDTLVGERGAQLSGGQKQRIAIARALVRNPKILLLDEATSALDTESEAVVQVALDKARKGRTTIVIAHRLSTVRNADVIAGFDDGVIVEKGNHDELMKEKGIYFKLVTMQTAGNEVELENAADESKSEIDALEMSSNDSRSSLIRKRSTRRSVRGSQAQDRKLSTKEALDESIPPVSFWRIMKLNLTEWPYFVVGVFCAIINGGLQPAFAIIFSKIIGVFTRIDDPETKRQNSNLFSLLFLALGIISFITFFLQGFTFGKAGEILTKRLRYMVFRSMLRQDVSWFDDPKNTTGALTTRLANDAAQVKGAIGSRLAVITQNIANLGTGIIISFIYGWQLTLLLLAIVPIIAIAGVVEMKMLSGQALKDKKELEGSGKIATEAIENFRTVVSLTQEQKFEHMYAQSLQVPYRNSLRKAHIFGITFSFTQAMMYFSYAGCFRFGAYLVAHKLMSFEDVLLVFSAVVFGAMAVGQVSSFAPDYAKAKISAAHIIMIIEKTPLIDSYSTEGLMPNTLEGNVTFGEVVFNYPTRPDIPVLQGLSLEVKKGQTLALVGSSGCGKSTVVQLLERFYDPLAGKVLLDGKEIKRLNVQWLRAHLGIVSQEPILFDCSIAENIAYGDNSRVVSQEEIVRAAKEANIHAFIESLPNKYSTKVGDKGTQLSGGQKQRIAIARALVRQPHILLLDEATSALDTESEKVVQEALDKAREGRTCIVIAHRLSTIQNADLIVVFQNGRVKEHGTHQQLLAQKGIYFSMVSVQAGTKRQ

Activity: inducer [+]
SMILES: CO[C@H]1/C=C/O[C@@]2(C)Oc3c(C)c(O)c4c(O)c(c(/C=N/N5CCN(C)CC5)c(O)c4c3C2=O)NC(=O)/C(C)=C\C=C\[C@H](C)[C@H](O)[C@@H](C)[C@@H](O)[C@@H](C)[C@H](OC(C)=O)[C@@H]1C [RIFAMPIN]

Reference: ChEMBL document CHEMBL2074195, “The role of intestinal P-glycoprotein in the interaction of digoxin and rifampin” (J Clin Invest, 1999)
